The target in experiment [1] is T1, Cloned human M1 receptor (CHRM1) (Homo sapiens, UniProt P11229).
T1 construct: expressed in transfected cells; host or cells: HEK293
T1 sequence (P11229 1-460): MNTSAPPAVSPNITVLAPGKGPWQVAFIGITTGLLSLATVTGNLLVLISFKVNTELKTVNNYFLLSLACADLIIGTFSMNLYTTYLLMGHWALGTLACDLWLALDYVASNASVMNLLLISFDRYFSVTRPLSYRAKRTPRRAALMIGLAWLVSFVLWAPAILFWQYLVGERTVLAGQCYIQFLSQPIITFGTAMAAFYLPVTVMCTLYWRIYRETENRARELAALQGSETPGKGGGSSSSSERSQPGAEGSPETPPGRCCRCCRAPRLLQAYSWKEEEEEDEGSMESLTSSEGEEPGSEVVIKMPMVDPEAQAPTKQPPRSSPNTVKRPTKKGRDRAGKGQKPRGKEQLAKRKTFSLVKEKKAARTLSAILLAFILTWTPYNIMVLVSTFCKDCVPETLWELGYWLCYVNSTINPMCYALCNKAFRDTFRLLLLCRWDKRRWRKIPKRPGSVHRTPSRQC
The experiment in a line: CHRM1 Ca++ Flux Assay (HEK293 M1 cells, agonist mode). It is filed as cell-based. The note with it: for Emax: Percent Activity (PA), read-out: M1 FDSS PA %; for EC50: geometric mean if tested more than once, read-out: M1 FDSS EC50. Summed up:
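HEK293 cells stably expressing human M1 were loaded with Ca++ dye, then given compounds (11-point dose, triplicate) in HBSS −Ca/−Mg, 20 mM HEPES. Ca++ flux was read over 3 min (agonist mode). Four-parameter curves were fitted, with activity as percent of carbachol EC100.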

The target in experiment [2] is T2, human cloned CHRM2 receptor (Homo sapiens, UniProt P08172).
T2 construct: expressed in transfected cells; host or cells: CHO-K1 (M2_CHO)
T2 sequence (P08172 1-466): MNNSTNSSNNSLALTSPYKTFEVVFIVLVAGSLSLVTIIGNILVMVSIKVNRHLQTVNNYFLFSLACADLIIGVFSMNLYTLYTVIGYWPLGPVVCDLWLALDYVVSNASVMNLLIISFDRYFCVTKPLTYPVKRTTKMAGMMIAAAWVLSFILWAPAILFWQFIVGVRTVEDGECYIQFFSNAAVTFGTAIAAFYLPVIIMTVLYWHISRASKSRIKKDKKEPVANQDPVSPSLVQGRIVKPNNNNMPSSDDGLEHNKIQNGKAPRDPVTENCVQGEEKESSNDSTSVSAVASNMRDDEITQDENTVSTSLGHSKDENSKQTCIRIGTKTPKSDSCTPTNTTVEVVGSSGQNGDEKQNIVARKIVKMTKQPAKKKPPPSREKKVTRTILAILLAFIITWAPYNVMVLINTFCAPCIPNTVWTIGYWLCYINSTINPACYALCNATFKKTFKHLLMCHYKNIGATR
The experiment in a line: CHRM2 Ca++ Flux Assay (M2_CHO cells, agonist mode). The note with it: M2 CHO cells; for EC50: agonist mode, geometric mean if tested more than once, read-out: M2 FDSS EC50; for Emax: Percent Activity (PA) measured to EC100 of Carbachol, read-out: M2 FDSS PA %. It is filed as cell-based. Put shortly:
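CHO-K1 cells stably expressing human CHRM2 were plated overnight at 12K cells/well and loaded with Ca++ dye for 1–2 h. They were then held 60 minutes in HBSS −Ca/−Mg, 20 mM HEPES, 2.5 mM probenecid, 20 μM ATP. Agonist-mode Ca++ flux was read over 3 minutes. Four-parameter fits of triplicates gave percent activity relative to carbachol EC100.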

Each structure is given as a SMILES string.

The term EC50 denotes the concentration giving half of the maximal effect.

For `Fc1ccc(OC2CC3(COC3)C2)c(C2CCN([C@@H]3COC4(C3)CN(c3nncs3)C4)CC2)c1` [Example 5W, (S)-7-(4-(2-((2-oxaspiro[3.3]heptan-6-yl)oxy)-5-fluorophenyl)piperidin-1-yl)-2-(1,3,4-thiadiazol-2-yl)-5-oxa-2-azaspiro[3.4]octane], the Emax in experiment [1] worked out at 68%; in experiment [2], 30%. Besides, the EC50 in experiment [1] is 3590 nM; in experiment [2], 20700 nM.

Turning to `Cc1nnc(-c2ccccc2C2CCN([C@@H]3COC4(C3)CN(c3nnco3)C4)CC2)o1` [Example 1Y, (S)-7-(4-(2-(5-methyl-1,3,4-oxadiazol-2-yl)phenyl)piperidin-1-yl)-2-(1,3,4-oxadiazol-2-yl)-5-oxa-2-azaspiro[3.4]octane], in experiment [1], the Emax worked out at 107% and the EC50 was determined as 579 nM. In experiment [2], the EC50 is 874 nM and the Emax worked out at 35%.

Consider `Cc1nnc(COc2ccc(F)cc2C2CCN([C@@H]3COC4(C3)CN(c3nnco3)C4)CC2)s1` [Example 2E, (S)-7-(4-(5-fluoro-2-((5-methyl-1,3,4-thiadiazol-2-yl)methoxy)phenyl)piperidin-1-yl)-2-(1,3,4-oxadiazol-2-yl)-5-oxa-2-azaspiro[3.4]octane], for which, in experiment [1], the Emax came out at 112% and the 50% effective concentration (EC50) amounted to 116 nM. In addition, in experiment [2], the EC50 stood at 81 nM and the Emax worked out at 59%.

Consider `Fc1ccc(OCC2COC2)c(C2CCN([C@@H]3COC4(C3)CN(c3nncs3)C4)CC2)c1` [Example 2A, (S)-7-(4-(5-fluoro-2-(oxetan-3-ylmethoxy)phenyl)piperidin-1-yl)-2-(1,3,4-thiadiazol-2-yl)-5-oxa-2-azaspiro[3.4]octane], for which, in experiment [1], the Emax worked out at 103% and the EC50 was found to be 553 nM. Further, in experiment [2], the half-maximal effective concentration (EC50) came out at 520 nM and the Emax turned out to be 46%.

For the molecule `CCc1nnc(COc2ccc(F)cc2C2CCN([C@@H]3COC4(C3)CN(c3nnco3)C4)CC2)s1` [Example 2T, (S)-7-(4-(2-((5-ethyl-1,3,4-thiadiazol-2-yl)methoxy)-5-fluorophenyl)piperidin-1-yl)-2-(1,3,4-oxadiazol-2-yl)-5-oxa-2-azaspiro[3.4]octane], in experiment [1], the Emax came to 89% and the EC50 came out at 63 nM. Moreover, in experiment [2], the concentration giving a half-maximal response (EC50) came out at 41 nM and the Emax was 44%.

`COc1ccccc1C1CCN([C@@H]2COC3(C2)CN(c2nnco2)C3)CC1` [Example 1Q, (S)-7-(4-(2-methoxyphenyl)piperidin-1-yl)-2-(1,3,4-oxadiazol-2-yl)-5-oxa-2-azaspiro[3.4]octane]: in experiment [1], the Emax amounted to 81% and the EC50 stood at 678 nM. Further, in experiment [2], the EC50 was found to be 3810 nM and the Emax stood at 16%.

Turning to `c1ccc(C2CCN([C@@H]3COC4(C3)CN(c3nnco3)C4)CC2)c(O[C@@H]2CCOC2)c1` [Example 1O, (S)-2-(1,3,4-oxadiazol-2-yl)-7-(4-(2-(((R)-tetrahydrofuran-3-yl)oxy)phenyl)piperidin-1-yl)-5-oxa-2-azaspiro[3.4]octane], in experiment [1], the Emax came out at 69% and the EC50 amounted to 1350 nM. Further, in experiment [2], the EC50 was determined as 611 nM and the Emax came out at 36%.

Turning to `COc1cc(F)ccc1C1CCN([C@@H]2COC3(C2)CN(c2nnco2)C3)CC1` [Example 1S, (S)-7-(4-(4-fluoro-2-methoxyphenyl)piperidin-1-yl)-2-(1,3,4-oxadiazol-2-yl)-5-oxa-2-azaspiro[3.4]octane], the Emax in experiment [1] was found to be 71%; in experiment [2], 13%. The results for the EC50 in experiment [1] and in experiment [2] were 634 nM and 656 nM, respectively.

For `Cc1nnc(COc2ccc(F)cc2C2CCN([C@@H]3COC4(C3)CN(c3nnco3)C4)CC2)o1` [Example 2F, (S)-7-(4-(5-fluoro-2-((5-methyl-1,3,4-oxadiazol-2-yl)methoxy)phenyl)piperidin-1-yl)-2-(1,3,4-oxadiazol-2-yl)-5-oxa-2-azaspiro[3.4]octane], the Emax stood at 103% in experiment [1] and 67% in experiment [2]. The results for the EC50 in experiment [1] and in experiment [2] were 61 nM and 113 nM, respectively.

Regarding `OC1(COc2ccc(F)cc2C2CCN([C@@H]3COC4(C3)CN(c3nnco3)C4)CC2)COC1` [Example 2U, (S)-3-((2-(1-(2-(1,3,4-oxadiazol-2-yl)-5-oxa-2-azaspiro[3.4]octan-7-yl)piperidin-4-yl)-4-fluorophenoxy)methyl)oxetan-3-ol], in experiment [1], the Emax was determined as 81% and the EC50 came out at 223 nM. Moreover, in experiment [2], the 50% effective concentration (EC50) was determined as 275 nM and the Emax was determined as 51%.

Turning to `Fc1ccc(OC[C@H]2CCCO2)c(C2CCN([C@@H]3COC4(C3)CN(c3nnco3)C4)CC2)c1` [Example 2M, (S)-7-(4-(5-fluoro-2-(((R)-tetrahydrofuran-2-yl)methoxy)phenyl)piperidin-1-yl)-2-(1,3,4-oxadiazol-2-yl)-5-oxa-2-azaspiro[3.4]octane], in experiment [1], the Emax is 7% and the EC50 is 3570 nM. Also, in experiment [2], the EC50 is 2030 nM and the Emax came to 20%.

Turning to `Fc1ccc(OC[C@H]2CCOC2)c(C2CCN([C@@H]3COC4(C3)CN(c3nncs3)C4)CC2)c1` [Example 5X, (S)-7-(4-(5-fluoro-2-(((S)-tetrahydrofuran-3-yl)methoxy)phenyl)piperidin-1-yl)-2-(1,3,4-thiadiazol-2-yl)-5-oxa-2-azaspiro[3.4]octane], in experiment [1], the Emax was found to be 75% and the EC50 came to 2340 nM. Further, in experiment [2], the EC50 amounted to 1420 nM and the Emax stood at 43%.

As to `COCCOc1ccc(F)cc1C1CCN([C@@H]2COC3(C2)CN(c2nnco2)C3)CC1` [Example 1L, (S)-7-(4-(5-fluoro-2-(2-methoxyethoxy)phenyl)piperidin-1-yl)-2-(1,3,4-oxadiazol-2-yl)-5-oxa-2-azaspiro[3.4]octane], in experiment [1], the Emax is 75% and the EC50 came out at 1320 nM. Further, in experiment [2], the EC50 was more than 25000 nM and the Emax was determined as 0%.

For `Fc1ccc(OC2CC3(COC3)C2)c(C2CCN([C@@H]3COC4(C3)CN(c3nnco3)C4)CC2)c1` [Example 2L, (S)-7-(4-(2-((2-oxaspiro[3.3]heptan-6-yl)oxy)-5-fluorophenyl)piperidin-1-yl)-2-(1,3,4-oxadiazol-2-yl)-5-oxa-2-azaspiro[3.4]octane], the Emax was 47% in experiment [1] and 14% in experiment [2]. Moreover, the results for the EC50 in experiment [1] and in experiment [2] were 2220 nM and 1070 nM, respectively.

Turning to `Fc1ccc(OC2CC3(COC3)C2)c(C2CCN([C@@H]3COC4(C3)CN(c3ncon3)C4)CC2)c1` [Example 6C, (S)-7-(4-(2-((2-oxaspiro[3.3]heptan-6-yl)oxy)-5-fluorophenyl)piperidin-1-yl)-2-(1,2,4-oxadiazol-3-yl)-5-oxa-2-azaspiro[3.4]octane], in experiment [1], the Emax came to 65% and the EC50 worked out at 2420 nM. Besides, in experiment [2], the EC50 stood at 1510 nM and the Emax turned out to be 18%.

`Fc1ccc(OCC2COC2)c(C2CCN([C@@H]3COC4(C3)CN(c3nnco3)C4)CC2)c1` [Example 2H, (S)-7-(4-(5-fluoro-2-(oxetan-3-ylmethoxy)phenyl)piperidin-1-yl)-2-(1,3,4-oxadiazol-2-yl)-5-oxa-2-azaspiro[3.4]octane]: in experiment [1], the Emax is 101% and the EC50 worked out at 542 nM. Besides, in experiment [2], the EC50 turned out to be 309 nM and the Emax is 60%.

The values above are taken from patent publication US11485742B2, “2-azaspiro[3.4]octane derivatives as M4 agonists” (NOVARTIS AG, priority 2019, dated 2022).
